Structures can show the parent of a compound that is named as a salt.
Assays:
[1] = Physical form composition of active ingredient in tablets prepared using roller compaction; format: physicochemical
Description: (S)—N-(3-(6-isopropoxypyridin-3-yl)-1H-indazol-5-yl)-1-(2-(4-(4-(1-methyl-1H-1,2,4-triazol-3-yl)phenyl)-3,6-dihydropyridin-1(2H)-yl)-2-oxoethyl)-3-(methylthio)pyrrolidine-3-carboxamide crystalline form 1 HCl was subjected to roller compaction in order to create a granular composition for subsequent use in preparing tablets of (S)—N-(3-(6-isopropoxypyridin-3-yl)-1H-indazol-5-yl)-1-(2-(4-(4-(1-methyl-1H-1,2,4-triazol-3-yl)phenyl)-3,6-dihydropyridin-1(2H)-yl)-2-oxoethyl)-3-(methylthio)pyrrolidine-3-carboxamide crystalline form 1 HCl.
Three tablets (RC-1, RC-2 and RC-3) having the following amounts (weight %) of ingredients were prepared using roller compaction.
The following procedure was followed: • 1. Blend colloidal silicon dioxide and (S)—N-(3-(6-isopropoxypyridin-3-yl)-1H-indazol-5-yl)-1-(2-(4-(4-(1-methyl-1H-1,2,4-triazol-3-yl)phenyl)-3,6-dihydropyridin-1(2H)-yl)-2-oxoethyl)-3-(methylthio)pyrrolidine-3-carboxamide crystalline form 1 HCl in a blender. • 2. Delump the blend using a screen. • 3. Blend lactose monohydrate, microcrystalline cellulose (Avicel 102), and disintegrant (croscarmellose sodium or crospovidone) with the delumped materials from step 2 using a blender. • 4. Add prescreened magnesium stearate lubricant to the blend of step 3 and blend. • 5. Roller compact the blend resulting from step 4 • 6. Screen the roller compacted ribbons through a mesh and add the resulting milled granules to a suitable bin. • 7. Add prescreened extragranular magnesium stearate lubricant to the bin and blend with the milled granules. • 8. Compress the final lubricated blend resulting from step 7 using a suitable rotary tablet press.
(§1) “LOD” refers to “limit of detection” and “<LOD” means the amount of indicated material, if any, was not detectable.

[2] = Physical form composition of active ingredient in tablets prepared using wet granulation; format: physicochemical
Experimental: Wet granulation of (S)—N-(3-(6-isopropoxypyridin-3-yl)-1H-indazol-5-yl)-1-(2-(4-(4-(1-methyl-1H-1,2,4-triazol-3-yl)phenyl)-3,6-dihydropyridin-1(2H)-yl)-2-oxoethyl)-3-(methylthio)pyrrolidine-3-carboxamide crystalline form 1 HCl was achieved using a high shear granulator. […] was alternatively achieved using a fluidized bed procedure.
Two tablets (1a and 1b) having the following amounts (weight %) of ingredients were prepared using wet granulation.
The following procedure was followed: • 1. Prepare a 20% binder solution by adding purified water and polyvinyl pyrrolidone K30 to a mixing vessel and stir until completely dissolved. • 2. Add lactose, microcrystalline cellulose (Avicel 102), (S)—N-(3-(6-isopropoxypyridin-3-yl)-1H-indazol-5-yl)-1-(2-(4-(4-(1-methyl-1H-1,2,4-triazol-3-yl)phenyl)-3,6-dihydropyridin-1(2H)-yl)-2-oxoethyl)-3-(methylthio)pyrrolidine-3-carboxamide crystalline form 1 HCl and a disintegrant (croscarmellose sodium or crospovidone) to a high shear granulator. • 3. Dry mix the ingredients using an impeller and chopper. • 4. Add the binder solution prepared in step 1 to the high shear granulator using a peristaltic pump and flexible tubing. • 5. Spray the binder solution to form wet granules. Additional mixing without spraying of the binder solution (also known as wet massing) may be used. • 6. Pass the wet granulation through a screen. • 7. Dry the granules using a tray dryer and dry heat. • 8. Pass the dried granules through a screen and add to a bin. • 9. Add extragranular disintegrant (croscarmellose sodium or crospovidone) to the materials in step 8 and blend. • 10. Add prescreened magnesium stearate lubricant to the bin and blend. • 11. Compress the lubricated blend resulting from step 10 using a suitable rotary tablet press. Fluidized Bed Granulation: • 1. Prepare a 20% binder solution by adding purified water and PVP K30 to a mixing vessel and stir until completely dissolved. • 2. Add lactose monohydrate, microcrystalline cellulose, (S)—N-(3-(6-isopropoxypyridin-3-yl)-1H-indazol-5-yl)-1-(2-(4-(4-(1-methyl-1H-1,2,4-triazol-3-yl)phenyl)-3,6-dihydropyridin-1(2H)-yl)-2-oxoethyl)-3-(methylthio)pyrrolidine-3-carboxamide crystalline form 1 HCl and croscarmellose sodium or crospovidone disintegrant to a fluid bed to form a mixture. • 3. Pre-heat the materials of step 2 using fluid air until the target bed temperature reaches 55°-60° C. • 4. Spray the binder solution prepared in step 1 onto the mixture resulting from step 2 to form wet granules. • 5. Fluidize and dry the wet granules resulting from step 4. • 6. Pass the dried granules through a screen and add to a bin • 7. Add extragranular croscarmellose sodium or crospovidone disintegrant to the dried granules and blend. • 8. Add prescreened magnesium stearate lubricant to the blend resulting from step 7 and blend. • 9. Compress the final lubricated blend using a suitable rotary tablet press.
as §1

[3] = share of total active ingredient
[4] = wet granulation tablets, <LOD = not detectable
[5] = wet granulation tablets, share of total active ingredient

F-1 FB (crystalline form 1 free base) amount ([1]; <LOD = not detectable): <LOD
Am FB (amorphous free base) amount [1, 3]: <LOD
Am HCl (amorphous HCl) amount [1, 3]: 7%
F-1 HCl (crystalline form 1 HCl) amount [1, 3]: 92%
disproportionation of crystalline form 1 HCl ([2]; wet granulation processing (high shear or fluidized bed)): no disproportionation
Am FB (amorphous free base) amount [2, 4]: LOD
F-1 FB (crystalline form 1 free base) amount [2, 4]: LOD
Am HCl (amorphous HCl) amount [2, 5]: 7%
F-1 HCl (crystalline form 1 HCl) amount [2, 5]: 92%
SMILES: CS[C@@]1(C(=O)Nc2ccc3[nH]nc(-c4ccc(OC(C)C)nc4)c3c2)CCN(CC(=O)N2CC=C(c3ccc(-c4ncn(C)n4)cc3)CC2)C1 [F-1 HCl, (S)—N-(3-(6-isopropoxypyridin-3-yl)-1H-indazol-5-yl)-1-(2-(4-(4-(1-methyl-1H-1,2,4-triazol-3-yl)phenyl)-3,6-dihydropyridin-1(2H)-yl)-2-oxoethyl)-3-(methylthio)pyrrolidine-3-carboxamide crystalline form 1 HCl]

— patent publication US10058544B2, “(S)-N-(3-(6-isopropoxypyridin-3-yl)-1H-indazol-5-yl)-1-(2-(4-(4-(1-methyl-1H-1,2,4-triazol-3-yl)phenyl)-3,6-dihydropyridin-1(2H)-yl)-2-oxoethyl)-3-(methylthio)pyrrolidine-3-carboxamide compositions for pharmaceutical preparations” (Merck Sharp & Dohme Corp., priority 2014, dated 2018)
